Experimental data: patent US20180049996A1, “THERAPEUTIC AGENT FOR CHRONIC RESPIRATORY DISEASE AND COMPOSITION FOR INHIBITING CARDIAC FIBROSIS” (NIPPON HYPOX LABORATORIES INCORPORATED, priority 2015, published 2018)

What was measured:
[1] = test system: Pulmonary Fibrosis Induced by Bleomycin; test: Histopathologic examination of lungs, pulmonary fibrosis induced by bleomycin; format: in vivo, male SD rats; conditions: for Severity score: Alveolar space, Bleeding / Severity score: Alveolar space, Macrophage accumulation / Severity score: Alveolar space, Protein exudation / Severity score: Alveolar wall, Fibroblast accumulation / Severity score: Alveolar wall, Fibrosis of interstitial tissue / Severity score: Alveolar wall, Interstitial edema / Severity score: Alveolar wall, Mononuclear cell infiltration / Severity score: Circumvascular region, Perivascular edema / Severity score: Circumvascular region, Plasma cell infiltration / Severity score: Peribronchial and peribronchiolar regions, Fibrosis of interstitial tissue / Severity score: Peribronchial and peribronchiolar regions, Lymphoid follicle hyperplasia / Severity score: Type II alveolar epithelial cell, Adenomatous hyperplasia / Severity score: Type II alveolar epithelial cell, Atypia and dysplasia: day 20 after bleomycin
Protocol: (§1) Bleomycin is used to produce disease-model animals of interstitial pneumonia. The bleomycin and 2,3,5-trimethylhydroquinone-1-hexyl ether (HTHQ) as the hydroquinone derivative represented by the general formula (1) described above of the present invention were simultaneously administered to male SD rats of 10 week old after birth to examine the effect of the action. The test groups consisted of the control group to which sterile saline was administered; test group 1 to which bleomycin (7.5 mg/kg body weight) alone was administered; test group 2 to which bleomycin (7.5 mg/kg body weight) and HTHQ (50 mg/kg body weight/day) were administered in combination; and test group 3 to which bleomycin (7.5 mg/kg body weight) and HTHQ (200 mg/kg body weight/day) were administered in combination.
(§2) In test groups 1 to 3, bleomycin was orally administered in a single dose. In test groups 2 and 3, 2,3,5-trimethylhydroquinone-1-hexyl ether (HTHQ) was daily orally administered for 10 or 20 days starting from 24 h after the administration of bleomycin. In test group 1, olive oil, which was used as a solvent of HTHQ, was daily orally administered at 10 mL/kg/day starting from 24 h after the administration of bleomycin. The number of animals in each group was 16. 8 animals of each group were sacrificed on days 10 and 20 after the administration of bleomycin and measurement of body weight, lung autopsy, histopathologic examination of lungs and bronchoalveolar lavage examination were conducted.
The main lung lesions observed in the rats in test group 1 (the bleomycin-single administration group) on day 10 after the administration were the peribronchial and peribronchiola enlargement of alveoli, the hyperplasia of the alveolar wall, the infiltration of monocytes and lymphocytes in alveolar walls and interstitial tissue, and the exudation of alveolar macrophage into alveolar spaces. These lesions were alleviated in rats in test groups 2 and 3 (the HTHQ-administered groups) compared to the tissue in test group 1.
The result of the histopathologic examination of lungs of the control group and the test groups on day 20 after the administration of bleomycin is shown in Table 1 below. “−” indicates “not found”, “+” indicates “mild”, “++” indicates “moderate”, and “+++” indicates “severe” in severity scores. In test group 1 (the bleomycin-single administration group), the hyperplasia and fibrosis of peribronchial and adjacent alveolar walls became remarkable compared to the tissue on day 10 after the administration and the morphology of alveolus almost disappeared due to the infiltration of lymphocytes and neutrophils. The alveolar macrophages infiltrated within alveolar spaces were buried in surrounding tissues.

[2] = test system: Pulmonary Fibrosis Induced by Bleomycin; test: Gross pathology of lungs, pulmonary fibrosis induced by bleomycin; format: in vivo, male SD rats; conditions: test groups 2 and 3: bleomycin 7.5 mg/kg + HTHQ 50 or 200 mg/kg/day oral; day 20
Protocol: as §1
as §2, with “8 animals of each group were sacrificed on days 10 and 20 after the administration of bleomycin and measurement of body weight, lung autopsy, histopathologic examination of lungs and bronchoalveolar lavage examination were conducted.” left out

[3] = test system: Myocardial Disorder Induced by Doxorubicin; test: Histopathologic examination of the hearts (light microscope), myocardial disorder induced by doxorubicin; format: in vivo, female SD rats; conditions: for Severity score: Cell infiltration in interstitial tissue / Severity score: Degeneration of myocardial cells / Severity score: Loss and disorganization of myocardial fibers / Severity score: Loss of intercalated discs / Severity score: Loss of striations / Severity score: Vacuolation of myocardial fibers: Test group 2: doxorubicin 13 mg/kg + HTHQ 50 mg/kg; for lesions of cardiac tissue (light microscope): Test group 2: doxorubicin + HTHQ 50 mg/kg, compared to test group 1
Protocol: Doxorubicin is used to produce disease-model animals of cardiomyopathy. The doxorubicin and 2,3,5-trimethylhydroquinone-1-hexyl ether (HTHQ) as the hydroquinone derivative represented by the general formula (1) described above of the present invention were simultaneously administered to female SD rats of 4 week old after birth to examine the effect of the action. The test groups consisted of the control group to which sterile saline was administered; test group 1 to which doxorubicin (13 mg/kg body weight) alone was administered; test group 2 to which doxorubicin (13 mg/kg body weight) and HTHQ (50 mg/kg body weight) were administered in combination; and test group 3 to which doxorubicin (13 mg/kg body weight), HTHQ (50 mg/kg body weight) and recombinant human erythropoietin (400 IU/kg body weight) were administered in combination. […] The test group 3 is used to confirm the presence or absence of the inhibitory effect brought about by combining HTHQ and rHuEPO on myocardial disorder.
Doxorubicin was orally administered in a single dose to the rats in test groups 1 to 3. 2,3,5-trimethylhydroquinone-1-hexyl ether (HTHQ) was orally administered to the rats in test groups 2 and 3 twice in total: 3 days before the administration of doxorubicin and on the day of the administration. Recombinant human erythropoietin was daily administered to the rats in test group 3 starting from 3 days before the administration of doxorubicin by intravenous injection. The number of animals in each group was 16. 8 animals of each group were sacrificed after collecting blood on day 7 and 14 after the administration of doxorubicin, and the autopsy of the hearts, the calculation of the relative weights of the hearts, the histopathologic examination of the hearts and the hematological examination were conducted.
“−” indicates “not found”, “+” indicates “mild”, “++” indicates “moderate”, and “+++” indicates “severe” in severity scores of the table.

[4] = Test group 2: bleomycin 7.5 mg/kg + HTHQ 50 mg/kg/day oral
[5] = Test group 3: bleomycin 7.5 mg/kg + HTHQ 200 mg/kg/day oral

Compound: CCCCCCOc1cc(C)c(O)c(C)c1C [HTHQ, 2,3,5-trimethylhydroquinone-1-hexyl ether]
- Severity score: Alveolar space, Bleeding [1, 4]: +
- Severity score: Alveolar space, Macrophage accumulation [1, 4]: +
- Severity score: Alveolar space, Protein exudation [1, 4]: +
- Severity score: Alveolar wall, Fibroblast accumulation [1, 4]: ++
- Severity score: Alveolar wall, Fibrosis of interstitial tissue [1, 4]: ++
- Severity score: Alveolar wall, Interstitial edema [1, 4]: +
- Severity score: Alveolar wall, Mononuclear cell infiltration [1, 4]: ++
- Severity score: Circumvascular region, Perivascular edema [1, 4]: +
- Severity score: Circumvascular region, Plasma cell infiltration [1, 4]: +
- Severity score: Peribronchial and peribronchiolar regions, Fibrosis of interstitial tissue [1, 4]: +
- Severity score: Peribronchial and peribronchiolar regions, Lymphoid follicle hyperplasia [1, 4]: +
- Severity score: Type II alveolar epithelial cell, Adenomatous hyperplasia [1, 4]: ++
- Severity score: Type II alveolar epithelial cell, Atypia and dysplasia [1, 4]: +
- Severity score: Alveolar space, Bleeding [1, 5]: −
- Severity score: Alveolar space, Macrophage accumulation [1, 5]: +
- Severity score: Alveolar space, Protein exudation [1, 5]: ++
- Severity score: Alveolar wall, Fibroblast accumulation [1, 5]: +
- Severity score: Alveolar wall, Fibrosis of interstitial tissue [1, 5]: +
- Severity score: Alveolar wall, Interstitial edema [1, 5]: +
- Severity score: Alveolar wall, Mononuclear cell infiltration [1, 5]: ++
- Severity score: Circumvascular region, Perivascular edema [1, 5]: −
- Severity score: Circumvascular region, Plasma cell infiltration [1, 5]: −
- Severity score: Peribronchial and peribronchiolar regions, Fibrosis of interstitial tissue [1, 5]: +
- Severity score: Peribronchial and peribronchiolar regions, Lymphoid follicle hyperplasia [1, 5]: +
- Severity score: Type II alveolar epithelial cell, Adenomatous hyperplasia [1, 5]: +
- Severity score: Type II alveolar epithelial cell, Atypia and dysplasia [1, 5]: +
- histopathologic lung lesions ([1]; test groups 2 and 3: bleomycin 7.5 mg/kg + HTHQ 50 or 200 mg/kg/day oral, day 10, compared to test group 1): alleviated
- degree of histopathologic lung lesions ([1]; test groups 2 and 3: bleomycin 7.5 mg/kg + HTHQ 50 or 200 mg/kg/day oral, day 20, compared to test group 1): milder than test group 1
- gross pathology of lungs (lesions) [2]: alleviated
- Severity score: Cell infiltration in interstitial tissue ([3]; Day 7 after administration): −
- Severity score: Degeneration of myocardial cells ([3]; Day 7 after administration): +
- Severity score: Loss and disorganization of myocardial fibers ([3]; Day 7 after administration): +
- Severity score: Loss of intercalated discs ([3]; Day 7 after administration): +
- Severity score: Loss of striations ([3]; Day 7 after administration): +
- Severity score: Vacuolation of myocardial fibers ([3]; Day 7 after administration): −
- Severity score: Cell infiltration in interstitial tissue ([3]; Day 14 after administration): −
- Severity score: Degeneration of myocardial cells ([3]; Day 14 after administration): +
- Severity score: Loss and disorganization of myocardial fibers ([3]; Day 14 after administration): +
- Severity score: Loss of intercalated discs ([3]; Day 14 after administration): +
- Severity score: Loss of striations ([3]; Day 14 after administration): +
- Severity score: Vacuolation of myocardial fibers ([3]; Day 14 after administration): +
- lesions of cardiac tissue (light microscope) ([3]; day 7): alleviated
- lesions of cardiac tissue (light microscope) ([3]; day 14): also alleviated
